Assay [1] addresses T1, ROCKII (1-543) (Homo sapiens, UniProt O75116). Nature of the assay: Luciferin-Luciferase Assay (PKLight ATP detection). Conditions: 7.5 nM ROCKII (1-543), 750 nM ATP. The arrangement: ROCKII (1-543) (62,408 Da) was diluted in assay buffer. The class given is biochemical. How it is done:
1. Luciferin-Luciferase Assay
The activity of ROCKII (1-543) kinase was measured utilizing Cambrex PKLight ATP Detection Reagent, a homogeneous assay technology using luciferin-luciferase to quantify residual ATP. The assay was performed in 384-well low-volume, white, non-binding surface microtiter plates (Corning). The assay buffer was 25 mM HEPES, pH 7.5, 10 mM MgCl2, 50 mM KCl, 0.2% BSA, 0.01% CHAPS, 100 μM Na3VO4 and 0.5 mM DTT. Test compounds, dissolved in neat DMSO at 500 μg/mL, were serially diluted for dose response for a final starting concentration of 3 μg/mL in 1% DMSO of assay buffer. ROCKII (1-543) (62,408 Da) was diluted in assay buffer to a final concentration of 7.5 nM in a total volume of 15 μL. Positive controls were reaction mixtures containing no test compound; negative controls (blanks) were reaction mixtures containing no kinase. After 15 minutes of pre-incubation of the test compounds with the kinase, a mixture of ATP and peptide substrate (AKRRRLSSLRA) in assay buffer was added to each well for a final concentration of 750 nM ATP and 500 nM peptide, respectively. After 90 minutes of incubation of the kinase reaction at 28° C. temperature, 10 μL of PKLight ATP Detection Reagent (warmed to room temperature previously) was added to each well. The assay plate was incubated at room temperature for additional 15 minutes and then read on an Analyst in luminescence mode. Dose-response experiments for each of the test compounds were conducted in quadruplet. IC50 values of test compounds represent 50% response of the positive control from the dose-response curve.
Target sequence in this assay (O75116 1-543): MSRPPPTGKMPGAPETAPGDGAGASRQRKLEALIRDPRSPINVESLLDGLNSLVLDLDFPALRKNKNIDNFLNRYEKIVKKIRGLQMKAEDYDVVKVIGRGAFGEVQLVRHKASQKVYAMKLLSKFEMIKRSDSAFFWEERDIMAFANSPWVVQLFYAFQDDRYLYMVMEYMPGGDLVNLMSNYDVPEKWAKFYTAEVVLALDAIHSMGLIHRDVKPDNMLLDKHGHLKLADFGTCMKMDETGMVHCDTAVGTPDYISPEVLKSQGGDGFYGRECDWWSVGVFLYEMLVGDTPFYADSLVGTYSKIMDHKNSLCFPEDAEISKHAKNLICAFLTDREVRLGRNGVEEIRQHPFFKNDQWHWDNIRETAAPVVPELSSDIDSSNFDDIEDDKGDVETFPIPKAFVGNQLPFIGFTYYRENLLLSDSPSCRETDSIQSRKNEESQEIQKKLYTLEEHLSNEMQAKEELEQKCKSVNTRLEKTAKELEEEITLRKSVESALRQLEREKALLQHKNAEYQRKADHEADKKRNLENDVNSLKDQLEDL

Assay [2] concerns the target T1, ROCKII (1-543). Briefly: IMAP Assay (fluorescence polarization, FAM S6 peptide). Conditions: IMAP FP, 1 nM ROCKII (1-543), 100 μM ATP; read-out: Assay 2 IC50. Type of assay: biochemical. The arrangement: 3 nM ROCKII (1-543) diluted in kinase reaction buffer. How it is done:
This assay is performed using FAM S6 substrate peptide (Catalogue #R7184) and IMAP FP Screening Express Kit detection reagents from Molecular Devices (Sunnyvale, Calif.) in IMAP kinase reaction buffer (Tris-HCl, pH 7.2, 10 mM MgCl2, 0.05% NaN3, 0.1% phosphate-free BSA) containing 1 mM DTT. Test compounds dissolved in neat DMSO at 0.3 mg/mL are serially diluted 1 to 3 for concentration response in 100% DMSO. The DMSO serial dilutions are further diluted 33.33-fold in kinase reaction buffer, and 10 μL of this buffer dilution is transferred to Corning black 96-well half area NBS plates for a final top concentration of 3 μg/mL in 1% DMSO. 10 μL aliquot of 3 nM ROCKII (1-543) diluted in kinase reaction buffer is added to each assay well for a final concentration of 1 nM kinase. 10 μL of a mixture of 600 nM FAM S6 peptide and 300 μM ATP diluted in kinase reaction buffer is added to each well for a final concentration of 200 nM peptide and 100 μM ATP. The kinase reaction mixture is incubated for 60 minutes at room temperature. Positive controls are reaction mixtures containing no test compound and negative controls (blanks) are reaction mixtures containing no kinase. The kinase reaction is stopped by addition of 60 μL IMAP progressive binding reagent (Catalog #R7284) diluted 400-fold in 1× Binding buffer A. After 30 min of incubation at room temperature, the plates are read for fluorescence polarization on Analyst Plate Reader using Ex 485 nm, Em 530 nm, and FL 505 dichroic mirror. The mP signals are converted to percent of control (POC) values using the formula: POC=100*(Signal−BCTRL)÷(PCTRL−BCTRL)
Where Signal is the test well signal, BCTRL is the average of background (negative control) well signals on the plate and PCTRL is the average of positive control well signals on the plate. For the concentration-responsive compounds, POC as a function of test compound concentration is fitted to a 4-parameter logistic equation of the form: Y=A+(B−A)/[1+(x/C)D]
Where A, B, C, and D are fitted parameters (parameter B is fixed at zero POC), and x and y are the independent and dependent variables, respectively. The IC50 is determined as the inflection point parameter, C.
Target sequence in this assay (O75116 1-543, species assumed): as the sequence (O75116 1-543) above
Background: Fluorescence polarisation rises when a labelled molecule tumbles more slowly, as on binding a larger partner.

pIC50: −log10 of the molar value. Where a name gives a salt, the structure may show the parent alone.

Among the data in patent US9000154B2, “Rho kinase inhibitors” (Boehringer Ingelheim International GmbH, priority 2010, dated 2015) are IC50 values, retold here.

For orientation: pIC50 means the IC50 on a negative log10 scale, so that one unit is a factor of ten. With `COCCN(CCOC)[C@H]1CCc2nc(NC(=O)c3cccc(Cn4cc(-c5ccc(C#N)cc5)nn4)c3)sc2C1` [Compound 55, N-{(S)-6-[Bis-(2-methoxy-ethyl)-amino]-4,5,6,7-tetrahydro-benzothiazol-2-yl}-3-[4-(4-cyano-phenyl)-[1,2,3]triazol-1-ylmethyl]-benzamide], the results for the pIC50 in assay [1] and in assay [2] were 8.64 and 8.19, respectively.

For `N#Cc1ccc(-c2cn(Cc3cccc(C(=O)Nc4nc5c(s4)C[C@@H](N4CCCCC4)CC5)c3)nn2)cc1` [Compound 44, 3-[4-(4-Cyano-phenyl)-1,2,3-triazol-1-ylmethyl]-N—((S)-6-piperidin-1-yl-4,5,6,7-tetrahydro-benzothiazol-2-yl)-benzamide], the negative logarithm of the IC50 (pIC50) in assay [1] is 8.62; in assay [2] it was 9.28.

With `CN1CCc2nc(NC(=O)c3cccc(CN4CCN(c5ccc(C#N)cc5)C4=O)c3)sc2C1` [Compound 1, 3-[3-(4-Cyano-phenyl)-2-oxo-imidazolidin-1-ylmethyl]-N-(5-methyl-4,5,6,7-tetrahydro-thiazolo[5,4-c]pyridin-2-yl)-benzamide], the figures for the negative logarithm of the IC50 (pIC50) in assay [1] and in assay [2] were 8.32 and 7.27, respectively.

Regarding `CN(C)[C@H]1CCc2nc(NC(=O)c3cccc(CN4CCN(c5ccc(C#N)cc5)C4=O)c3)sc2C1` [Compound 3, 3-[3-(4-Cyano-phenyl)-2-oxo-imidazolidin-1-ylmethyl]-N—((S)-6-dimethylamino-4,5,6,7-tetrahydro-benzothiazol-2-yl)-benzamide], the pIC50 in assay [1] is 8.70; in assay [2], 9.17.

Consider `N#Cc1ccc(-c2cnn(Cc3cccc(C(=O)Nc4nc5c(s4)CC(N4CCC(F)(F)CC4)CC5)c3)c2)cc1` (stereo not shown) [Compound 15, 3-[4-(4-Cyano-phenyl)-pyrazol-1-ylmethyl]-N-[6-(4,4-difluoro-piperidin-1-yl)-4,5,6,7-tetrahydro-benzothiazol-2-yl]-benzamide trifluoroacetate], for which the negative logarithm of the IC50 (pIC50) in assay [1] is 8.34; in assay [2], 8.62.

Regarding `N#Cc1ccc(-c2cn(Cc3cccc(C(=O)Nc4nc5c(s4)CC(NCC(F)F)CC5)c3)nn2)cc1` (stereo not shown) [Compound 52, 3-[4-(4-Cyano-phenyl)-[1,2,3]triazol-1-ylmethyl]-N-[6-(2,2-difluoro-ethylamino)-4,5,6,7-tetrahydro-benzothiazol-2-yl]-benzamide], the pIC50 in assay [1] was 8.03.

For the compound `COCCN(C)[C@@H]1CCc2nc(NC(=O)c3cccc(Cn4cc(-c5ccc(C#N)cc5)cn4)c3)sc2C1` [Compound 64, 3-[4-(4-Cyano-phenyl)-pyrazol-1-ylmethyl]-N-{(R)-6-[(2-methoxy-ethyl)-methyl-amino]-4,5,6,7-tetrahydro-benzothiazol-2-yl}-benzamide], in assay [1], the negative logarithm of the IC50 (pIC50) is 8.70.

Regarding `COCCN[C@H]1CCc2nc(NC(=O)c3cccc(Cn4cc(-c5ccc(C#N)cc5)cn4)c3)sc2C1` [Compound 45, 3-[4-(4-Cyano-phenyl)-pyrazol-1-ylmethyl]-N—[(S)-6-(2-methoxy-ethylamino)-4,5,6,7-tetrahydro-benzothiazol-2-yl]-benzamide], the values for the negative logarithm of the IC50 (pIC50) in assay [1] and in assay [2] were 8.68 and 9.46, respectively.

Regarding `N#Cc1ccc(-c2cn(Cc3cccc(C(=O)Nc4nc5c(s4)C[C@@H](N4CCOCC4)CC5)c3)cn2)cc1` [Compound 10, 3-[4-(4-Cyano-phenyl)-imidazol-1-ylmethyl]-N—((S)-6-morpholin-4-yl-4,5,6,7-tetrahydro-benzothiazol-2-yl)-benzamide], the values for the negative-log IC50 (pIC50) in assay [1] and in assay [2] were 8.57 and 9.06, respectively.

Take `COCCN(C)C1CCc2nc(NC(=O)c3cccc(Cn4cc(-c5ccc(C#N)cc5)nn4)c3)sc2C1` (stereo not shown) [Compound 24, 3-[4-(4-Cyano-phenyl)-[1,2,3]triazol-1-ylmethyl]-N-{6-[(2-methoxy-ethyl)-methyl-amino]-4,5,6,7-tetrahydro-benzothiazol-2-yl}-benzamide]: the pIC50 in assay [1] was 8.51; in assay [2] it was 8.59.

Regarding `COCCN(C)[C@@H]1CCc2nc(NC(=O)c3cccc(Cn4cc(-c5ccc(C#N)cc5)nn4)c3)sc2C1` [Compound 66, 3-[4-(4-Cyano-phenyl)-[1,2,3]triazol-1-ylmethyl]-N-{(R)-6-[(2-methoxy-ethyl)-methyl-amino]-4,5,6,7-tetrahydro-benzothiazol-2-yl}-benzamide], the negative-log IC50 (pIC50) in assay [1] is 8.19.

The compound `COCCN[C@@H]1CCc2nc(NC(=O)c3cccc(Cn4cc(-c5ccc(C#N)cc5)nn4)c3)sc2C1` [Compound 65, 3-[4-(4-Cyano-phenyl)-[1,2,3]triazol-1-ylmethyl]-N—[(R)-6-(2-methoxy-ethylamino)-4,5,6,7-tetrahydro-benzothiazol-2-yl]-benzamide] gave a negative-log IC50 (pIC50) in assay [1] of 8.72.

With `N#Cc1ccc(-c2cn(Cc3cccc(C(=O)Nc4nc5c(s4)C[C@H](N)CC5)c3)nn2)cc1` [Compound 58, N—((R)-6-Amino-4,5,6,7-tetrahydro-benzothiazol-2-yl)-3-[4-(4-cyano-phenyl)-[1,2,3]triazol-1-ylmethyl]-benzamide], in assay [1], the pIC50 is 8.66.

On to `N#Cc1ccc(-c2cn(Cc3cccc(C(=O)Nc4nc5c(s4)CC(N4CCC(F)(F)CC4)CC5)c3)nn2)cc1` (stereo not shown) [Compound 41, 3-[4-(4-Cyano-phenyl)-1,2,3-triazol-1-ylmethyl]-N-[6-(4,4-difluoro-piperidin-1-yl)-4,5,6,7-tetrahydro-benzothiazol-2-yl]-benzamide], for which the pIC50 was 8.15 in assay [1] and 8.24 in assay [2].

Take `CN(C1CC1)C1CCc2nc(NC(=O)c3cccc(Cn4cc(-c5ccc(C#N)cc5)nn4)c3)sc2C1` (stereo not shown) [Compound 68, 3-[4-(4-Cyano-phenyl)-[1,2,3]triazol-1-ylmethyl]-N-[6-(cyclopropyl-methyl-amino)-4,5,6,7-tetrahydro-benzothiazol-2-yl]-benzamide]: in assay [1], the negative logarithm of the IC50 (pIC50) was 8.14.

With `CN(CC(F)F)C1CCc2nc(NC(=O)c3cccc(Cn4cc(-c5ccc(C#N)cc5)cn4)c3)sc2C1` (stereo not shown) [Compound 59, 3-[4-(4-Cyano-phenyl)-pyrazol-1-ylmethyl]-N-{6-[(2,2-difluoro-ethyl)-methyl-amino]-4,5,6,7-tetrahydro-benzothiazol-2-yl}-benzamide], the pIC50 in assay [1] was 8.14.

For `N#Cc1ccc(-c2cnn(Cc3cccc(C(=O)Nc4nc5c(s4)CC(NCC(F)F)CC5)c3)c2)cc1` (stereo not shown) [Compound 51, 3-[4-(4-Cyano-phenyl)-pyrazol-1-ylmethyl]-N-[6-(2,2-difluoro-ethylamino)-4,5,6,7-tetrahydro-benzothiazol-2-yl]-benzamide], the negative-log IC50 (pIC50) in assay [1] is 8.74.

Turning to `CN(CCC#N)[C@H]1CCc2nc(NC(=O)c3cccc(Cn4cc(-c5ccc(C#N)cc5)cn4)c3)sc2C1` [Compound 53, N-{(S)-6-[(2-Cyano-ethyl)-methyl-amino]-4,5,6,7-tetrahydro-benzothiazol-2-yl}-3-[4-(4-cyano-phenyl)-pyrazol-1-ylmethyl]-benzamide], the pIC50 in assay [1] is 8.72.

In assay [1], `N#Cc1ccc(-c2cnn(Cc3cccc(C(=O)Nc4nc5c(s4)CC(N4CCC(F)(F)C4)CC5)c3)c2)cc1` (stereo not shown) [Compound 73, 3-[4-(4-Cyano-phenyl)-pyrazol-1-ylmethyl]-N-[6-(3,3-difluoro-pyrrolidin-1-yl)-4,5,6,7-tetrahydro-benzothiazol-2-yl]-benzamide] had a negative-log IC50 (pIC50) of 8.07.
